Measured values taken from US12521379B2, “Use of FK506 for the treatment of pulmonary arterial hypertension” (The Board of Trustees of the Leland Stanford Junior …, priority 2011, dated 2026).

B1: BMP4: bone morphogenetic protein 4, used as a positive control (protein, UniProt P12644 293-408, looked up)
Bone morphogenetic protein 4: SPKHHSQRARKKNKNCRRHSLYVDFSDVGWNDWIVAPPGYQAFYCHGDCPFPLADHLNSTNHAIVQTLVNSVNSSIPKACCVPTELSAISMLYLDEYDKVVLKNYQEMVVEGCGCR

Key:
[1] = Prevention of PAH in mice with conditional deletion of BMPRII in ECs, 3 weeks of hypoxia; format: in vivo, mouse; settings: mouse, serum, 0.05 mg/kg/day; mice, 0.05 mg/kg/d; read-out: serum levels
Description: (§1) 3600 FDA approved drugs and bioactive compounds were screened for their ability to activate BMP signaling, using a C2C12 mouse myoblast cell line stably transfected with a reporter plasmid expressing a BMP response element (BRE) from the Id1 promoter fused to the luciferase-gene (BRE-luc). Whether the best qHTS-BMPRII activator can induce Smad phosphorylation (phospho), Id1 expression and promote PAEC survival and tube formation was determined using BMP4 as a positive control. Whether the qHTS-BMPRII-activator would prevent PAH in mice with a conditional deletion in BMPRII in ECs (BMPRII-SCL-CreERT) that develop exaggerated PAH after 3 weeks of hypoxia (10% O2) was determined. In order to assess whether the BMPRII activator could also reverse PAH, we used 2 models of severe experimental PH in rats: 1. Monocrotaline induced pulmonary hypertension with development of severe medial hypertrophy of the pulmonary arteries 3 weeks after injection. 2. SUGEN (VEGF-Receptor blocker) and 3-week chronic hypoxia induced pulmonary hypertension with development of neointima formation in pulmonary arteries 8 weeks after initiation of the stimulus. Both groups were treated with FK-506 for 3 weeks via sc osmotic pump (0.05 mg/kg/d) after PAH and remodeling of the pulmonary arteries was established. The serum level of FK-506 in mice and rats was aimed to be 0.2 ng/ml.

[2] = system: mice with a conditional deletion in BMPRII in ECs (BMPRII-SCL-CreERT); experiment: as above; format: in vivo, mouse; settings: 0.05 mg/kg/d, 3-week preventive treatment, 3 weeks of hypoxia, n=5
Description: as §1

[3] = system: monocrotaline induced pulmonary hypertension; experiment: Reversal of monocrotaline induced pulmonary hypertension in rats; format: in vivo, rat
Description: as §1

[4] = system: SUGEN and chronic hypoxia induced pulmonary hypertension; experiment: Reversal of SUGEN and 3-week chronic hypoxia induced pulmonary hypertension in rats; format: in vivo, rat; settings: n=4
Description: as §1

[5] = system: WBC count, nuclear NFATc2; experiment: Immunosuppressive effect at low dose: WBC count and nuclear NFATc2; format: in vivo; settings: low dose of 0.2 ng/ml
[6] = system: PAECs harvested from IPAH patients; experiment: p-Smad 1/5/8 and Id1 expression in PAECs harvested from IPAH patients; format: cell-based, human; settings: PAECs from six different IPAH patients at the time of transplant
Description: as §1

PAECs [7] = experiment: PAEC survival; format: cell-based; settings: n=5, p<0.001
Description: as §1

PAECs [8] = experiment: Tube formation in an angiogenesis assay; format: cell-based; settings: n=3, p<0.01
Description: as §1

[9] = 3-week sc treatment at established PAH

Molecule	concentration at 3 weeks [1]	RV systolic pressure [2]	RVH (right ventricular hypertrophy) [2]	survival ([3]; after 3-week treatment started 3 weeks after monocrotaline 60 mg s.c.)	RVSP ([3]; surviving rats after 3-week treatment, n=14)	RVH [4, 9]	RVSP [4, 9]	Neointima formation in small pulmonary arteries per total vessel number ([4]; alveolar wall and alveolar duct vessels)	immunosuppressive effect of decreased nuclear NFATc2 [5]	total or differential WBC count [5]	Id1 expression [6]	p-Smad 1/5/8 [6]	survival of PAECs (PAECs [7])	tube formation (PAECs [8])
C=CC[C@@H]1/C=C(\C)C[C@H](C)C[C@H](OC)[C@H]2O[C@@](O)(C(=O)C(=O)N3CCCC[C@H]3C(=O)O[C@H](/C(C)=C/[C@@H]3CC[C@@H](O)[C@H](OC)C3)[C@H](C)[C@@H](O)CC1=O)[C@H](C)C[C@@H]2OC [FK-506]	0.2 ng/mL	21±2.3 mmHg	26.9±4.5	57%	39.5±4.7 mmHg	0.34±0.02	39.5±0.6 mmHg	16.2±5.8%	nor was an immunosuppressive effect of decreased nuclear NFATc2 measured	no effect	–	–	–	–
B1	–	–	–	–	–	–	–	–	–	–	3/6 patients that did not respond	3/6 patients that did not respond	improved survival	induced tube formation
